In the CheMixHub viscosity set:
± gives the uncertainty stated by the source.

Test: xn = mol fraction of the nth substance listed

NC=O + O
viscosity [mPa·s]
Settings	101 kPa	101.33 kPa
293.15 K, x1 = 0.0753	1.098 ± 0.054	–
293.15 K, x1 = 0.1519	1.195 ± 0.058	–
293.15 K, x1 = 0.2309	1.318 ± 0.063	–
293.15 K, x1 = 0.2959	1.446 ± 0.068	–
293.15 K, x1 = 0.3852	1.603 ± 0.075	–
298.15 K, x1 = 0.00687	0.921 ± 0.18	–
298.15 K, x1 = 0.1	0.9871 ± 0.011	–
298.15 K, x1 = 0.1001	1.044 ± 0.018	–
298.15 K, x1 = 0.1998	1.161 ± 0.022	–
298.15 K, x1 = 0.2	1.121 ± 0.014	–
298.15 K, x1 = 0.212	1.182 ± 0.24	–
298.15 K, x1 = 0.3	1.262 ± 0.018	–
298.15 K, x1 = 0.3003	1.315 ± 0.029	–
298.15 K, x1 = 0.304	1.283 ± 0.26	–
298.15 K, x1 = 0.3989	1.463 ± 0.035	–
298.15 K, x1 = 0.4	1.43 ± 0.022	–
298.15 K, x1 = 0.4997	1.698 ± 0.046	–
298.15 K, x1 = 0.5	1.631 ± 0.028	–
298.15 K, x1 = 0.551	2.101 ± 0.42	–
298.15 K, x1 = 0.5997	1.927 ± 0.058	–
298.15 K, x1 = 0.6	1.868 ± 0.036	–
298.15 K, x1 = 0.6029	2.275 ± 0.46	–
298.15 K, x1 = 0.692	2.142 ± 0.069	–
298.15 K, x1 = 0.7	2.138 ± 0.045	–
298.15 K, x1 = 0.8	2.471 ± 0.056	–
298.15 K, x1 = 0.8004	2.508 ± 0.09	–
298.15 K, x1 = 0.9	2.881 ± 0.071	–
298.15 K, x1 = 0.9013	2.906 ± 0.11	–
303.15 K, x1 = 0.0964	–	0.8965 ± 0.0074
303.15 K, x1 = 0.1998	–	1.015 ± 0.0083
303.15 K, x1 = 0.2994	–	1.15 ± 0.0093
303.15 K, x1 = 0.3996	–	1.298 ± 0.01
303.15 K, x1 = 0.4999	–	1.474 ± 0.012
303.15 K, x1 = 0.5995	–	1.662 ± 0.014
303.15 K, x1 = 0.6999	–	1.878 ± 0.016
303.15 K, x1 = 0.8001	–	2.139 ± 0.018
303.15 K, x1 = 0.9	–	2.432 ± 0.021
308.15 K, x1 = 0.0964	–	0.8135 ± 0.0068
308.15 K, x1 = 0.1	0.8181 ± 0.0093	–
308.15 K, x1 = 0.1998	–	0.9213 ± 0.0076
308.15 K, x1 = 0.2	0.9244 ± 0.012	–
308.15 K, x1 = 0.2994	–	1.047 ± 0.0086
308.15 K, x1 = 0.3	1.047 ± 0.015	–
308.15 K, x1 = 0.3996	–	1.182 ± 0.0096
308.15 K, x1 = 0.4	1.183 ± 0.018	–
308.15 K, x1 = 0.4999	–	1.34 ± 0.011
308.15 K, x1 = 0.5	1.342 ± 0.023	–
308.15 K, x1 = 0.5995	–	1.506 ± 0.012
308.15 K, x1 = 0.6	1.523 ± 0.029	–
308.15 K, x1 = 0.6999	–	1.697 ± 0.014
308.15 K, x1 = 0.7	1.731 ± 0.036	–
308.15 K, x1 = 0.8	2.002 ± 0.045	–
308.15 K, x1 = 0.8001	–	1.926 ± 0.016
308.15 K, x1 = 0.9	2.307 ± 0.057	2.18 ± 0.019
313.15 K, x1 = 0.0964	–	0.7424 ± 0.0063
313.15 K, x1 = 0.1001	0.734 ± 0.008	–
313.15 K, x1 = 0.1998	0.835 ± 0.011	0.8455 ± 0.0071
313.15 K, x1 = 0.2994	–	0.9584 ± 0.0079
313.15 K, x1 = 0.3003	0.949 ± 0.015	–
313.15 K, x1 = 0.3989	1.091 ± 0.02	–
313.15 K, x1 = 0.3996	–	1.08 ± 0.0089
313.15 K, x1 = 0.4997	1.23 ± 0.026	–
313.15 K, x1 = 0.4999	–	1.221 ± 0.01
313.15 K, x1 = 0.5995	–	1.373 ± 0.011
313.15 K, x1 = 0.5997	1.402 ± 0.033	–
313.15 K, x1 = 0.692	1.545 ± 0.04	–
313.15 K, x1 = 0.6999	–	1.543 ± 0.013
313.15 K, x1 = 0.8001	–	1.746 ± 0.015
313.15 K, x1 = 0.8004	1.813 ± 0.053	–
313.15 K, x1 = 0.9	–	1.967 ± 0.017
313.15 K, x1 = 0.9013	2.102 ± 0.068	–
318.15 K, x1 = 0.0964	–	0.6812 ± 0.0059
318.15 K, x1 = 0.1	0.6761 ± 0.0079	–
318.15 K, x1 = 0.1998	–	0.7768 ± 0.0066
318.15 K, x1 = 0.2	0.7811 ± 0.01	–
318.15 K, x1 = 0.2994	–	0.8815 ± 0.0074
318.15 K, x1 = 0.3	0.8781 ± 0.012	–
318.15 K, x1 = 0.3996	–	0.993 ± 0.0083
318.15 K, x1 = 0.4	0.9948 ± 0.016	–
318.15 K, x1 = 0.4999	–	1.121 ± 0.0093
318.15 K, x1 = 0.5	1.12 ± 0.019	–
318.15 K, x1 = 0.5995	–	1.259 ± 0.011
318.15 K, x1 = 0.6	1.259 ± 0.024	–
318.15 K, x1 = 0.6999	–	1.409 ± 0.012
318.15 K, x1 = 0.7	1.42 ± 0.03	–
318.15 K, x1 = 0.8	1.604 ± 0.037	–
318.15 K, x1 = 0.8001	–	1.59 ± 0.014
318.15 K, x1 = 0.9	1.812 ± 0.045	1.788 ± 0.016
323.15 K, x1 = 0.0964	–	0.6275 ± 0.0055
323.15 K, x1 = 0.1998	–	0.7165 ± 0.0062
323.15 K, x1 = 0.2994	–	0.8121 ± 0.0069
323.15 K, x1 = 0.3996	–	0.9187 ± 0.0077
323.15 K, x1 = 0.4999	–	1.032 ± 0.0087
323.15 K, x1 = 0.5995	–	1.158 ± 0.0098
323.15 K, x1 = 0.6999	–	1.292 ± 0.011
323.15 K, x1 = 0.8001	–	1.457 ± 0.013
323.15 K, x1 = 0.9	–	1.629 ± 0.014
